Laboratory results taken from patent US20120226031A1, “PALMARUMYCIN BASED INHIBITORS OF THIOREDOXIN AND METHODS OF USING SAME” (ARIZONA BOARD OF REGENTS, ACTING ON BEHALF OF THE …, priority 2005, published 2012).
Like-named read-outs stand apart in the source and are kept apart here.

Columns and labels:
[1] = biological target: T1, human thioredoxin reductase (Homo sapiens, UniProt Q16881); test: Inhibition of purified human thioredoxin reductase (TrxR/TR); format: biochemical
T1 construct: (placenta); from tissue; host or cells: human placenta
T1 sequence (Q16881 151-649 limits assumed): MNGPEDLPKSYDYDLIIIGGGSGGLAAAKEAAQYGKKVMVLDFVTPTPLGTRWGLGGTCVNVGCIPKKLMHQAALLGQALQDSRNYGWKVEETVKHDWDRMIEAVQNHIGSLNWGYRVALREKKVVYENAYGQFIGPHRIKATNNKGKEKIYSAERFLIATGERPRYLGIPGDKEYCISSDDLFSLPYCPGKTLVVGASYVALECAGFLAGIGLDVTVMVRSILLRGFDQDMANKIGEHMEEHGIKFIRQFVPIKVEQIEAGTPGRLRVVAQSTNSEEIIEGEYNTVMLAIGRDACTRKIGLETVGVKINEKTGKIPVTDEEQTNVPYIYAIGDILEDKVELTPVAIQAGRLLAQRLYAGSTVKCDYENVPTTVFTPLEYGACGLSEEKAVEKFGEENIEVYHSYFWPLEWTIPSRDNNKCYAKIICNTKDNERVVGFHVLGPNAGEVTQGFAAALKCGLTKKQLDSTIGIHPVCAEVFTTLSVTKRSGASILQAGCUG

[2] = test system: A-673 human rhabdomyosarcoma xenografts; test: Antitumor activity, A-673 rhabdomyosarcoma xenograft; format: in vivo, mouse; parameters: dose or concentration left out as unconfirmed; conditions: ip
Experimental: FIG. 4. Antitumor activity of PX-916. A. Female beige nude mice were inoculated subcutaneously (s.c.) with 10^7 A-673 rhabdomyosarcoma cells. […] B. Female scid mice were inoculated s.c. with 10^7 SHP-77 human small cell lung cancer cells. When tumors were 130 mm^3 on day 17 (arrow) dosing was begun with (∘) vehicle alone; (▪) PX-916 10 mg/kg i.v. daily for 8 doses; (▴) PX-916 25 mg/kg i.v. daily for 5 doses. C. Female scid mice implanted 1 day previously with a 17-β-estradiol 60 day slow release pellet were inoculated s.c. with 10^7 MCF-7 human breast cancer cells. When tumors were 180 mm^3 on day 8 (arrow) dosing was begun with (∘) vehicle alone; (⋄) PX-916 27.5 mg/kg i.v. daily for 5 doses. In both A and B values are the mean of 8 mice per group and bars are SE.
(§1) A single intravenous (i.v.) dose of PX-916 of 25 mg/kg inhibited MCF-7 human tumor xenograft TR up to about 60% at 24 hr and the inhibition was maintained for at least 48 hr (FIG. 3C). […] In this study 3 of eight nice had no histologically detectable tumor when the study was terminated on day 42.

[3] = test system: MCF-7 human breast cancer xenografts; test: Antitumor activity, MCF-7 breast cancer xenograft; format: in vivo, mouse
Experimental: FIG. 4. Antitumor activity of PX-916. A. Female beige nude mice were inoculated subcutaneously (s.c.) with 10^7 A-673 rhabdomyosarcoma cells. When tumors were 100 mm^3 on day 8 (arrow) dosing was begun with (∘) vehicle alone; (▴) PX-916 10 mg/kg intraperitoneally (i.p.) daily for 4 doses. B. Female scid mice were inoculated s.c. with 10^7 SHP-77 human small cell lung cancer cells. When tumors were 130 mm^3 on day 17 (arrow) dosing was begun with (∘) vehicle alone; (▪) PX-916 10 mg/kg i.v. daily for 8 doses; (▴) PX-916 25 mg/kg i.v. daily for 5 doses. C. Female scid mice implanted 1 day previously with a 17-β-estradiol 60 day slow release pellet were inoculated s.c. with 10^7 MCF-7 human breast cancer cells. […] In both A and B values are the mean of 8 mice per group and bars are SE.
as §1

VEGF = test: Tumor VEGF immunohistochemistry in MCF-7 xenografts; format: in vivo, mouse; conditions: five daily doses of 25 mg/kg, 24 hours after last dose
Experimental: FIG. 5. Inhibition of tumor HIF-1α, VEGF and thioredoxin reductase by repeated administration of PX-916. Female scid mice were implanted 1d previously with a 90-d 17β-estradiol slow release pellet were inoculated s.c. with 10^7 MCF-7 human breast cancer cells. When the tumors were 300 mm^3, vehicle or 25 mg/kg/d PX-916 was given i.v. for five doses. Twenty four hours later, the tumors were removed and stained by immunohistochemistry for HIF-1α and VEGF (A) or assayed for thioredoxin reductase activity (B). Columns mean of four mice, SE. P≦0.05.
Levels of the HIF-1α transcription factor and its downstream target VEGF are increased by thioredoxin-1 expression. We examined the effect of PX-916 administration on tumor HIF-1α and VEGF levels (FIG. 5A). Twenty-four hours after the last dose of five daily doses of PX-916 of 25 mg/kg, there was a decrease in MCF-7 xenograft staining for both HIF-1α and VEGF. At the same time, levels of tumor thioredoxin reductase activity were decreased by 75% (FIG. 5B).

[4] = Toxicity in female scid mice; format: in vivo, mouse
[5] = pH dependent stability in water / 0.1M sodium phosphate buffer; format: physicochemical
Experimental: PX-916 was stable as a stock solution in ethanol at room temperature with a half life of >5 days. […] Therefore, for in vitro studies PX-916 was used as a stock solution in ethanol, and for in vivo studies made fresh in pH 4.0 buffer vehicle.
Further palmarumycin analogs were synthesized and tested. The following analogs were synthesized: eee269-II, eee86-III, eee263-II and eee273-II. The stability of the analogs was measured in various solutions.

[6] = 27.5 mg/kg i.v. every other day for 5 doses
[7] = 25 mg/kg i.v. x5, 24 hr after last dose
[8] = 25 mg/kg iv QD × 5, 24 hr after last dose, mean ± SE

Question: Which IC50 ([1]; Table 1, read-out: TrxR inhibitory activity IC50) does the source give for `NCC(=O)Oc1ccc2c3c(cccc13)OC1(C=CC(=O)c3c(O)cccc31)O2` (stereo not shown) [PX-916, O-glycyl naphthoquinone spiroketal] here?
Answer: The IC50 was 280 nM.

Question: What about the IC50 ([1]; Table 2, read-out: Inhibition of human thioredoxin reductase IC50) of the same molecule?
Answer: The IC50 was 280 nM.

Question: And the IC50 ([1]; Table 3, read-out: Inhibition IC50, thioredoxin reductase (placenta))?
Answer: Its IC50 is 280 nM.

Question: What about the “mode of inhibition of thioredoxin reductase-1” value ([1]; in words) of the same molecule?
Answer: The value was “NADPH and time dependent, apparently, irreversible inhibitor”.

Question: And the IC50 ([1]; read-out: IC50 purified TrxR)?
Answer: Its IC50 is 280 nM.

Question: What about the IC50 ([1]; read-out: IC50 purified human TR) of the same molecule?
Answer: The IC50 was 280 nM.

Question: What about the tumor growth inhibition [2] of the same molecule?
Answer: Its tumor growth inhibition is 97%.

Question: What about the tumor growth rate ([2]; 5 days after dosing) of the same molecule?
Answer: The tumor growth rate was 5±3 mm^3/d.

Question: And the tumor growth inhibition ([3]; 27.5 mg/kg i.v. daily for 5 doses)?
Answer: The tumor growth inhibition was 52%.

Question: And the tumor growth rate ([3]; 27.5 mg/kg i.v. daily for 5 doses, 5 days after end of dosing)?
Answer: The tumor growth rate was 22±4 mm^3/day.

Question: And the tumor growth inhibition [3, 6]?
Answer: Its tumor growth inhibition is 52%.

Question: What about the tumor growth rate [3, 6] of the same molecule?
Answer: The tumor growth rate was 22±8 mm^3/day.

Question: What about the tumor growth inhibition ([3]; 27.5 mg/kg orally for 5 doses) of the same molecule?
Answer: Its tumor growth inhibition is 62%.

Question: What about the tumor growth rate ([3]; 27.5 mg/kg orally for 5 doses) of the same molecule?
Answer: The tumor growth rate was 18.5±8 mm^3/day.

Question: And the “antitumor activity following oral administration” value ([3]; oral, at doses that gave i.v. antitumor activity)?
Answer: The value was “Significant antitumor activity was not seen”.

Question: What about the “MCF-7 xenograft staining for VEGF” value (VEGF) of the same molecule?
Answer: Its value is “decrease”.

Question: And the major toxicities observed [4, 7]?
Answer: The major toxicities observed was “neutropenia and thrombocytopenia”.

Question: What about the plasma liver enzymes [4, 7] of the same molecule?
Answer: The plasma liver enzymes was “no observable increase”.

Question: And the weight loss [4, 7]?
Answer: The weight loss was “no significant weight loss”.

Question: And the ALT [4, 8]?
Answer: The ALT was 39.8 ± 12.8 U/I.

Question: What about the AST [4, 8] of the same molecule?
Answer: The AST was 166.9 ± 29.8 U/I.

Question: What about the Hb [4, 8] of the same molecule?
Answer: The Hb was 14.9 ± 0.4 g/dL.

Question: What about the LY [4, 8] of the same molecule?
Answer: Its LY is 0.3 ± 0.1 K/μl.

Question: And the MO [4, 8]?
Answer: Its MO is 005 ± 0.01 K/μl.

Question: What about the NE [4, 8] of the same molecule?
Answer: Its NE is 0.9 ± 0.3 K/μl.

Question: What about the PLT [4, 8] of the same molecule?
Answer: Its PLT is 436 ± 142 K/μl.

Question: And the RBC [4, 8]?
Answer: Its RBC is 8.9 ± 0.4 M/μl.

Question: What about the WB [4, 8] of the same molecule?
Answer: The WB was 1.3 ± 0.6 K/μl.

Question: And the Δbodywt [4, 8]?
Answer: Its Δbodywt is -0.6 ± 0.3 g.

Question: What about the tolerability ([4]; 5 daily doses of 25 mg/kg i.v., female scid mice) of the same molecule?
Answer: The tolerability was “tolerated”.

Question: And the lethality ([4]; single i.v. dose of 50 mg/kg, female scid mice)?
Answer: Its lethality is “lethal”.

Question: And the half-life ([5]; 0.1M sodium phosphate buffer, pH 4.0, read-out: half life (converted))?
Answer: Its half-life is 37 h.

Question: What about the half-life ([5]; 0.1M sodium phosphate buffer, pH 7.0, read-out: half life (converted)) of the same molecule?
Answer: The half-life was 1 h.

Question: What about the half-life ([5]; 0.1M sodium phosphate buffer, pH 10.0, read-out: half life (converted)) of the same molecule?
Answer: The half-life was under 1 h.

Question: What about the “half life of conversion to PX-960” value ([5]; physiological pH) of the same molecule?
Answer: Its value is 1 h.

Question: What about the half-life ([5]; water, pH 4, room temperature, pH4, read-out: t1/2 in water (converted)) of the same molecule?
Answer: The half-life was 37 h.

Question: And the half-life ([5]; water, pH 7 and above, read-out: t1/2 in water (converted))?
Answer: Its half-life is under 1 h.
